Laboratory results from patent US20130202653A1, “3-ARYL-3-HYDROXY-2-AMINO-PROPIONIC ACID AMIDES, 3-HETEROARYL-3-HYDROXY-2-AMINOPROPIONIC ACID AMIDES AND RELATED COMPOUNDS HAVING ANALGESIC AND/OR IMMUNO STIMULANT ACTIVITY” (Allergan, Inc., priority 2005, published 2013).
Structures can show the parent of a compound that is named as a salt. Where two headings read alike, the source gives them in different places.

System: tactile allodynia in the rat Chung model
Experiment: Chung model: reversal of tactile allodynia (von Frey hairs) after spinal nerve ligation
Type: in vivo
Settings: for inhibition in vivo at 0.3 mg/kg / inhibition in vivo at 0.03 mg/kg: Rattus norvegicus, ip, read-out: Peak % Pain reversal: time post dose; for inhibition in vivo at 0.3 mg/kg / Peak % Pain reversal: time post dose: 300 μg/kg IP; for inhibition in vivo at 0.03 mg/kg: 30 μg/kg IP
From the text: An art-accepted model or assay for measuring an analgesic effect of a compound in chronic pain (in particular peripheral neuropathy) is the model known as Kim and Chung 1992, Pain […], pp 355-363 (Chung model). This model involves the surgical ligation of the L5 (and optionally the L6) spinal nerves on one side in experimental animals. Rats recovering from the surgery gain weight and display a level of general activity similar to that of normal rats. However, these rats develop abnormalities of the foot, wherein the hindpaw is moderately everted and the toes are held together. More importantly, the hindpaw on the side affected by the surgery appears to become sensitive to low-threshold mechanical stimuli and will perceive pain instead of the faint sensation of touch. This sensitivity to normally non-painful touch, called “tactile allodynia”, develops within the first week after surgery and lasts for at least two months. The allodynia response includes lifting the affected hindpaw to escape from the stimulus, licking the paw and holding it in the air for many seconds. None of these responses is normally seen in the control group.
To produce the tactile allodynia, rats are anesthetized before surgery. The surgical site is shaved and prepared either with betadine or Novacaine. Incision is made from the thoracic vertebra X111 down toward the sacrum. Muscle tissue is separated from the spinal vertebra (left side) at the L4-S2 levels. The L6 vertebra is located and the transverse process is carefully removed with a small rongeur to expose the L4-L6 spinal nerves. The L5 and L6 spinal nerves are isolated and tightly ligated with 6-0 silk thread. The same procedure is done on the right side as a control, except no ligation of the spinal nerves is performed.
After a complete hemostasis is confirmed, the wounds are sutured. A small amount of antibiotic ointment is applied to the incised area, and the rat is transferred to the recovery plastic cage under a regulated heat-temperature lamp.
On the day of the experiment, at least seven days after the surgery, typically six rats per test group are administered the test drugs by intraperitoneal (i.p.) injection or oral gavage (p.o.). For i.p. administration, the compounds are formulated in H2O and given in a volume of 1 ml/kg body weight by injecting into the intraperitoneal cavity. For p.o. administration, the compounds are formulated in H2O and given in a volume of 1 ml/kg body weight using an 18-gauge, 3 inch gavage needle that is slowly inserted through the esophagus into the stomach.
Tactile allodynia is assessed via von Frey hairs, which are a series of fine hairs with incremental differences in stiffness. Rats are placed in a plastic cage with a wire mesh bottom and allowed to acclimate for approximately 30 minutes. To establish the pre-drug baseline, the von Frey hairs are applied perpendicularly through the mesh to the mid-plantar region of the rats' hindpaw with sufficient force to cause slight buckling and held for 6-8 seconds. The applied force has been calculated to range from 0.41 to 15.1 grams. If the paw is sharply withdrawn, it is considered a positive response. A normal animal will not respond to stimuli in this range, but a surgically ligated paw will be withdrawn in response to a 1-2 gram hair. The 50% paw withdrawal threshold is determined using the method of Dixon, W. J., Ann. Rev. Pharmacol. Toxicol. 20:441-462 (1980) hereby incorporated by reference. Tactile allodynia is measured prior to and 15, 30, and 60 minutes after drug administration. The post-drug threshold is compared to the pre-drug threshold and the percent reversal of tactile sensitivity is calculated based on a normal threshold of 15.1 grams.
Table 1 below indicates the degree of pain reversal obtained in the Chung model with exemplary compounds of the invention. […]

[1] = 0.5 h, peak at 30 min post dose

| Compound | inhibition in vivo at 0.3 mg/kg (1 h, peak at 60 min post dose) | further results |
| --- | --- | --- |
| CC(C)(C)OC(=O)N[C@@H](C(=O)N1CCCC1)[C@@H](O)c1ccncc1 (racemic) [Compound 218, tert-butyl(±)-threo-1-hydroxy-3-oxo-1-(pyridin-4-yl)-3-(pyrrolidin-1-yl)propan-2-ylcarbamate hydrochloride] | 32% | – |
| N[C@@H](C(=O)N1CCCC1)[C@H](O)c1ccncc1 (racemic) [Compound 219, (±)-erythro-2-amino-3-hydroxy-3-(pyridin-4-yl)-1-(pyrrolidin-1-yl)propan-1-one dihydrochloride] | – | inhibition in vivo at 0.03 mg/kg (1 h, peak at 60 min post dose): 82% |
| NC(C(=O)N1CCCC1)C(=NO)c1ccncc1 (racemic) [Compound 224, (±)-2-Amino-3-(hydroxyimino)-3-(pyridin-4-yl)-1-(pyrrolidin-1-yl)propan-1-one dihydrochloride] | 51% | – |
| O=C([C@H](NCc1ccccc1I)[C@@H](O)c1ccncc1)N1CCCC1 (racemic) [Compound 226, (±)-threo-2-(2-iodobenzylamino)-3-hydroxy-3-(pyridin-4-yl)-1-(pyrrolidin-1-yl)-propan-1-one dihydrochloride] | 95% | – |
| O=C([C@H](NCc1cccc(I)c1)[C@@H](O)c1ccncc1)N1CCCC1 (racemic) [Compound 227, (±)-threo-2-(3-iodobenzylamino)-3-hydroxy-3-(pyridin-4-yl)-1-(pyrrolidin-1-yl)-propan-1-one dihydrochloride] | – | inhibition in vivo at 0.3 mg/kg [1]: 95% |
| N[C@@H](C(=O)N1CCOCC1)[C@@H](O)c1ccsc1 (racemic) [Compound 230, (±)-threo-2-Amino-3-hydroxy-1-morpholino-3-(thiophen-3-yl)propan-1-one hydrochloride] | – | inhibition in vivo at 0.3 mg/kg [1]: 52% |
| N[C@@H](C(=O)N1CCOCC1)[C@@H](O)c1cccnc1 (racemic) [Compound 232, (±)-threo-2-Amino-3-hydroxy-1-morpholino-3-(pyridin-3-yl)propan-1-one dihydrochloride] | 80% | – |
| NCCCCCC(=O)N[C@@H](C(=O)N1CCCC1)[C@@H](O)c1ccncc1 (racemic) [Compound 238, 6-amino-N-((±)-threo-1-hydroxy-3-oxo-1-(pyridin-4-yl)-3-(pyrrolidin-1-yl)propan-2-yl)hexanamide] | 61% | – |
| C[C@@](O)(c1ccncc1)[C@@H](N)C(=O)N1CCCC1 (racemic) [Compound 239, (±)-erythro-2-Amino-3-hydroxy-3-(pyridin-4-yl)-1-(pyrrolidin-1-yl)butan-1-one dihydrochloride] | – | inhibition in vivo at 0.3 mg/kg [1]: 75% |
| Cn1ccnc1[C@H](O)[C@@H](N)C(=O)N1CCCC1 (racemic) [Compound 254, (±)-threo-2-Amino-3-hydroxy-3-(1-methyl-1H-imidazol-2-yl)-1-(pyrrolidin-1-yl)propan-1-one dihydrochloride] | 62% | – |
| NC(C(=O)N1CCCC1)C(O)c1ccsc1 (single isomer, unassigned; (+)) [Compound 205, (+)-threo-2-Amino-3-hydroxy-1-(pyrrolidin-1-yl)-3-(thiophen-3-yl)propan-1-one hydrochloride] | – | inhibition in vivo at 0.3 mg/kg [1]: 62% |
| NC(C(=O)N1CCCC1)C(O)c1ccsc1 (single isomer, unassigned; (-)) [Compound 206, (−)-threo-2-Amino-3-hydroxy-1-(pyrrolidin-1-yl)-3-(thiophen-3-yl)propan-1-one hydrochloride] | – | Peak % Pain reversal: time post dose (peak at 30 min post dose, hydrochloride): 67% 30 min |
| NC(C(=O)N1CCCC1)C(O)c1cccnc1 (single isomer, unassigned; (-)) [Compound 207, (−)-threo-2-Amino-3-hydroxy-3-(pyridin-3-yl)-1-(pyrrolidin-1-yl)propan-1-one dihydrochloride] | 96% | – |
| NC(C(=O)N1CC[C@H](F)C1)C(O)c1ccncc1 (single isomer, unassigned; (-)) [Compound 248, dihydrochloride] | – | inhibition in vivo at 0.03 mg/kg (1 h, peak at 60 min post dose): 59% |
| N[C@@H](C(=O)N1CCCC1)[C@@H](O)c1ccncc1 [Compound 203, (−)-(2R,3S)-2-Amino-3-hydroxy-3-(pyridin-4-yl)-1-(pyrrolidin-1-yl)propan-1-one dihydrochloride] | 87% | – |
| N[C@H](C(=O)N1CCCC1)[C@H](O)c1ccncc1 [Compound 204, (+)-(2S,3R)-2-Amino-3-hydroxy-3-(pyridin-4-yl)-1-(pyrrolidin-1-yl)propan-1-one dihydrochloride] | 50% | – |
| NC(C(=O)N1CC[C@H](F)C1)C(O)c1ccncc1 (stereo partly drawn) [Compound 214, (2S,3R)- & (2R,3S)-2-Amino-1-((S)-3-fluoropyrrolidin-1-yl)-3-hydroxy-3-(pyridin-4-yl)propan-1-one dihydrochlorides] | – | inhibition in vivo at 0.03 mg/kg (1 h, peak at 60 min post dose): 86% |
| NC(C(=O)N1CC[C@@H](F)C1)C(O)c1ccncc1 (stereo partly drawn) [Compound 215, (2S,3R)- & (2R,3S)-2-Amino-1-((R)-3-fluoropyrrolidin-1-yl)-3-hydroxy-3-(pyridin-4-yl)propan-1-one dihydrochlorides] | 73% | – |
| N[C@@H](C(=O)N1CCCC1)[C@H](O)c1ccncc1 [Compound 220, (−)-(2R,3R)-2-amino-3-hydroxy-3-(pyridin-4-yl)-1-(pyrrolidin-1-yl)propan-1-one dihydrochloride] | – | inhibition in vivo at 0.3 mg/kg [1]: 32% |
| N[C@H](C(=O)N1CCCC1)[C@@H](O)c1ccncc1 [Compound 221, (+)-(2S,3S)-2-amino-3-hydroxy-3-(pyridin-4-yl)-1-(pyrrolidin-1-yl)propan-1-one dihydrochloride] | 87% | – |
| O=C([C@@H](NCc1cccc(I)c1)[C@H](O)c1ccncc1)N1CCCC1 [Compound 228, (+)-(2S,3R)-2-(3-iodobenzylamino)-3-hydroxy-3-(pyridin-4-yl)-1-(pyrrolidin-1-yl)-propan-1-one dihydrochloride] | 36% | – |
| O=C([C@H](NCc1cccc(I)c1)[C@@H](O)c1ccncc1)N1CCCC1 [Compound 229, (2R,3S)-2-(3-iodobenzylamino)-3-hydroxy-3-(pyridin-4-yl)-1-(pyrrolidin-1-yl)-propan-1-one dihydrochloride] | 53% | – |
| O=C([C@H](N[C@@H](CO)c1ccccc1)[C@@H](O)c1ccncc1)N1CCCC1 [Compound 234, (2R,3S)-2-((R)-2-Hydroxy-1-phenylethylamino)-3-hydroxy-3-(pyridin-4-yl)-1-(pyrrolidin-1-yl)propan-1-one dihydrochloride] | 59% | – |
| N[C@H](Cc1ccncc1)C(=O)N1CCCC1 [Compound 236, (R)-2-amino-3-(pyridin-4-yl)-1-(pyrrolidin-1-yl)propan-1-one dihydrochloride] | 32% | – |
| N[C@@H](Cc1ccncc1)C(=O)N1CCCC1 [Compound 240, (S)-2-amino-3-(pyridin-4-yl)-1-(pyrrolidin-1-yl)propan-1-one dihydrochloride] | – | inhibition in vivo at 0.03 mg/kg (1 h, peak at 60 min post dose): 70% |
| Cl.Cl.N[C@H](C(=O)N1CC[C@@H](O)C1)[C@H](O)c1ccncc1 [Compound 247, (2S,3R)- & (2R,3S)-2-Amino-1-((R)-3-hydroxypyrrolidin-1-yl)-3-hydroxy-3-(pyridin-4-yl)propan-1-one dihydrochlorides] | – | Peak % Pain reversal: time post dose (peak at 60 min post dose): 42% 60 min |
| Cl.Cl.N[C@H](C(=O)N1CC[C@H](F)C1)[C@H](O)c1ccsc1 [Compound 256, (2S,3R)- & (2R,3S)-2-Amino-1-((S)-3-fluoropyrrolidin-1-yl)-3-hydroxy-3-(thiophen-3-yl)propan-1-one dihydrochlorides] | – | Peak % Pain reversal: time post dose (peak at 60 min post dose): 62% 60 min |
